Measurements from US6360588B1, “Materials and methods for the analysis of substances passing through a membrane” (priority 1998, dated 2002).

assay: diffusion through polydimethylsiloxane membrane (MAPI, electrospray mass spectrometry detection); type: physicochemical; details: polydimethylsiloxane membrane 0.01 to 0.05 inches thick; result in words, curves in FIGS. 8-11
From the text: In operation, once the membrane and spacer are in place and the top portion 50 and bottom plate 56 are secured, a substance under study can be placed in contact with the first side of the membrane. Carrier fluid can be flowing through volume 64 and to a detection means. As the substance diffuses through the membrane and exits the second side of the membrane, it can be carried to the detection apparatus for analysis. In this way, an accurate time dependent curve can be generated as to the amounts of the substance under study exiting the second side of the membrane. This example illustrates the results from diffusion of a variety of substances through polydimethylsiloxane membrane obtained from PILLAR SCIENTIFIC, ranging in thickness from 0.01 inches to 0.05 inches. A mass spectrometer was used as a detection apparatus with electrospray ionization utilized to ionize the sample for detection in the mass spectrometer.

**Q.** Which “diffusion through the membrane (relative abundance exiting the second side as a function of time)” value does the source give for `COC(=O)c1ccc(O)cc1` [methyl paraben] here?
**A.** Its value is “diffusion of methyl paraben through the polydimethylsiloxane membrane”.

**Q.** Which “diffusion through the membrane (relative abundance exiting the second side as a function of time)” value does the source give for `Clc1cccc(Cl)c1N=C1NCCN1` [clonidine] here?
**A.** Its value is “clonidine diffusing through the membrane”.

**Q.** Which “diffusion through the membrane (relative abundance exiting the second side as a function of time)” value does the source give for `CCCCOC(=O)c1ccc(O)cc1` [n-butyl paraben] here?
**A.** The value was “diffusion of n-butyl paraben through the polydimethylsiloxane membrane”.

**Q.** With `CCOC(=O)c1ccc(O)cc1` [ethyl paraben] as the compound, how does the “diffusion through the membrane (relative abundance exiting the second side as a function of time)” value read?
**A.** The value was “diffusion of ethyl paraben through the polydimethylsiloxane membrane”.
